Literature values, collected in patent US9492404B2, “Compositions and methods for treatment of taupathy” (Revalesio Corporation, priority 2010, dated 2016).

Tested on: primary progressive MS
Details: 943 patients with primary progressive MS

Glatiramer acetate
progression of disability and the disease: failed to halt
